Where “and” joins values, the source holds several entries; their conditions need not be identical. Equal entries are not always repeated. Toxic doses and inconclusive results are not listed. No stated cut-off is given here; in the data, active means T/C of 150% or more; inactive means T/C below 125%.
Test system: L1210 leukemia ip in BDF1 mice, survival T/C
Test: NCI In Vivo Anticancer Drug Screen. Data for tumor model L1210 Leukemia (intraperitoneal) in B6D2F1 (BDF1) mice
Settings: endpoint: mean survival time, higher = longer survival
Method in brief: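 In this screen, tumor-bearing mice given compound are compared to those given vehicle, and their survival values are reported as a treated-to-control quotient.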

[1] = dose: 100.0 mg/kg/injection, schedule: Q01DX009 (ip), vehicle: Klucel (hydroxypropylcellulose) (HPC)
[2] = dose: 200.0 mg/kg/injection, schedule: Q01DX009 (ip), vehicle: Klucel (hydroxypropylcellulose) (HPC)
[3] = dose: 25.0 mg/kg/injection, schedule: Q04DX002 (ip), vehicle: saline with Tween-80
[4] = dose: 100.0 mg/kg/injection, schedule: Q01DX001 (ip), vehicle: saline
[5] = dose: 200.0 mg/kg/injection, schedule: Q01DX001 (ip), vehicle: saline
[6] = dose: 400.0 mg/kg/injection, schedule: Q01DX001 (ip), vehicle: saline
[7] = dose: 100.0 mg/kg/injection, schedule: Q01DX009 (ip), vehicle: saline with Tween-80
[8] = dose: 100.0 mg/kg/injection, schedule: Q04DX003 (ip), vehicle: saline with Tween-80
[9] = dose: 200.0 mg/kg/injection, schedule: Q01DX009 (ip), vehicle: saline with Tween-80
[10] = dose: 200.0 mg/kg/injection, schedule: Q04DX003 (ip), vehicle: saline with Tween-80
[11] = dose: 400.0 mg/kg/injection, schedule: Q01DX009 (ip), vehicle: saline with Tween-80
[12] = dose: 400.0 mg/kg/injection, schedule: Q04DX003 (ip), vehicle: saline with Tween-80
[13] = dose: 50.0 mg/kg/injection, schedule: Q01DX001 (ip), vehicle: carboxymethylcellulose (CMC)
[14] = dose: 100.0 mg/kg/injection, schedule: Q01DX001 (ip), vehicle: carboxymethylcellulose (CMC)
[15] = dose: 200.0 mg/kg/injection, schedule: Q01DX001 (ip), vehicle: carboxymethylcellulose (CMC)
[16] = dose: 400.0 mg/kg/injection, schedule: Q01DX001 (ip), vehicle: carboxymethylcellulose (CMC)

Measured: T/C

Cc1ccc(N(N)c2ccc(C)cc2)cc1
inactive: [1] 98 % of control | dose: 100.0 mg/kg/injection, schedule: Q04DX003 (ip), vehicle: Klucel (hydroxypropylcellulose) (HPC) 100 % of control | [2] 98 % of control | dose: 200.0 mg/kg/injection, schedule: Q04DX003 (ip), vehicle: Klucel (hydroxypropylcellulose) (HPC) 97 % of control | dose: 400.0 mg/kg/injection, schedule: Q04DX003 (ip), vehicle: Klucel (hydroxypropylcellulose) (HPC) 100 % of control

OCC1OC(n2cncn2)C(O)C1O (stereo unspecified)
inactive: dose: 100.0 mg/kg/injection, schedule: Q01DX005 (ip), vehicle: saline 102 % of control and 111 % of control

N#CC(C(=O)Nc1cccc(C(F)(F)F)c1)C(=S)Nc1ccccc1Cl (stereo unspecified)
inactive: [3] 102 % of control | dose: 50.0 mg/kg/injection, schedule: Q04DX002 (ip), vehicle: saline with Tween-80 105 % of control | dose: 100.0 mg/kg/injection, schedule: Q04DX002 (ip), vehicle: saline with Tween-80 101 % of control and 105 % of control

c1ccc2c(C3CSC3)nncc2c1
inactive: [4] 97 % of control | [5] 97 % of control | [6] 94 % of control

O=C(c1ccccc1)C(Cl)c1ccccc1 (stereo unspecified)
inactive: dose: 25.0 mg/kg/injection, schedule: Q01DX009 (ip), vehicle: Klucel (hydroxypropylcellulose) (HPC) 105 % of control | dose: 50.0 mg/kg/injection, schedule: Q01DX009 (ip), vehicle: Klucel (hydroxypropylcellulose) (HPC) 111 % of control | [1] 107 % of control

CC1(C)CCC(N)CC1
inactive: dose: 75.0 mg/kg/injection, schedule: Q01DX001 (ip), vehicle: saline 93 % of control | dose: 150.0 mg/kg/injection, schedule: Q01DX001 (ip), vehicle: saline 95 % of control

O=C(O)c1cc([N+](=O)[O-])ccc1Cl
inactive: dose: 100.0 mg/kg/injection, schedule: Q04DX002 (ip), vehicle: Klucel (hydroxypropylcellulose) (HPC) 117 % of control | dose: 200.0 mg/kg/injection, schedule: Q04DX002 (ip), vehicle: Klucel (hydroxypropylcellulose) (HPC) 103 % of control | dose: 400.0 mg/kg/injection, schedule: Q04DX002 (ip), vehicle: Klucel (hydroxypropylcellulose) (HPC) 98 % of control

CCC(c1ccc(Cl)cc1)N1CCC2(CC1)C(=O)NCN2c1ccccc1 (stereo unspecified)
inactive: [7] 94 % of control | [8] 102 % of control | [9] 96 % of control | [10] 104 % of control | [11] 89 % of control | [12] 91 % of control

O=c1ccnc[nH]1
inactive: [7] 92 % of control | [9] 93 % of control | [11] 88 % of control

Oc1cc(O)c(CN(CCCl)CCCl)cc1CN(CCCl)CCCl
inactive: dose: 5.5 mg/kg/injection, schedule: Q01DX009 (ip), vehicle: saline 115 % of control | dose: 8.2 mg/kg/injection, schedule: Q01DX009 (ip), vehicle: saline 121 % of control | dose: 18.75 mg/kg/injection, schedule: Q01DX009 (ip), vehicle: saline 103 % of control | dose: 25.0 mg/kg/injection, schedule: Q01DX009 (ip), vehicle: saline with Tween-80 101 % of control | [13] 115 % of control | dose: 50.0 mg/kg/injection, schedule: Q01DX009 (ip), vehicle: saline with Tween-80 94 % of control | [14] 115 % of control | dose: 100.0 mg/kg/injection, schedule: Q04DX003 (ip), vehicle: saline 110 % of control | [15] 108 % of control | dose: 200.0 mg/kg/injection, schedule: Q04DX003 (ip), vehicle: saline 92 % of control | [16] 123 % of control | dose: 400.0 mg/kg/injection, schedule: Q04DX003 (ip), vehicle: saline 90 % of control | dose: 800.0 mg/kg/injection, schedule: Q04DX003 (ip), vehicle: saline 100 % of control

NC(=S)c1ccc(S(=O)(=O)Nc2cccc(Br)c2)cc1
inactive: [8] 103 % of control | [10] 103 % of control | [12] 97 % of control

CC(=O)C12OC1CC1C3CCC4=CC(=O)CCC4(C)C3CC(=O)C12C (stereo unspecified)
inactive: dose: 75.0 mg/kg/injection, schedule: Q01DX009 (ip), vehicle: carboxymethylcellulose (CMC) 94 % of control | dose: 150.0 mg/kg/injection, schedule: Q01DX009 (ip), vehicle: carboxymethylcellulose (CMC) 107 % of control | dose: 300.0 mg/kg/injection, schedule: Q01DX009 (ip), vehicle: carboxymethylcellulose (CMC) 105 % of control

Cc1cc(Sc2ccccc2)c2c(C)ccc(C(C)C)cc1-2
inactive: [14] 95 % of control | [15] 97 % of control | [16] 95 % of control

O=C(Nc1cccc(Cl)c1Cl)N(Cc1ccccc1)Cc1ccccc1
inactive: [1] 108 % of control | [2] 97 % of control | dose: 400.0 mg/kg/injection, schedule: Q01DX009 (ip), vehicle: Klucel (hydroxypropylcellulose) (HPC) 101 % of control

O=S1CCOCC1.O=S1CCOCC1.O=S1CCOCC1.O=S1CCOCC1.O=S1CCOCC1.O=S1CCOCC1.[Hg+2].[O-][Cl+3]([O-])([O-])O
inactive: dose: 3.0 mg/kg/injection, schedule: Q01DX009 (ip), vehicle: Klucel (hydroxypropylcellulose) (HPC) 93 % of control | dose: 6.0 mg/kg/injection, schedule: Q01DX009 (ip), vehicle: Klucel (hydroxypropylcellulose) (HPC) 92 % of control | dose: 12.5 mg/kg/injection, schedule: Q01DX009 (ip), vehicle: Klucel (hydroxypropylcellulose) (HPC) 98 % of control

CC(=O)C1=CC2(OC3CCC(O)(C(=O)CO)C(C)O3)C(=O)c3c(cc4cccc(O)c4c3O)CC2C(O)C1O (stereo unspecified)
inactive: dose: 3.12 mg/kg/injection, schedule: Q01DX001 (ip), vehicle: carboxymethylcellulose (CMC) 114 % of control | dose: 6.25 mg/kg/injection, schedule: Q01DX001 (ip), vehicle: carboxymethylcellulose (CMC) 100 % of control | dose: 12.5 mg/kg/injection, schedule: Q01DX001 (ip), vehicle: carboxymethylcellulose (CMC) 104 % of control | dose: 25.0 mg/kg/injection, schedule: Q01DX001 (ip), vehicle: carboxymethylcellulose (CMC) 106 % of control | [13] 115 % of control | dose: 50.0 mg/kg/injection, schedule: Q01DX015 (ip), vehicle: carboxymethylcellulose (CMC) 102 % of control | [14] 111 % of control | dose: 100.0 mg/kg/injection, schedule: Q01DX015 (ip), vehicle: carboxymethylcellulose (CMC) 102 % of control | [15] 100 % of control | dose: 200.0 mg/kg/injection, schedule: Q01DX015 (ip), vehicle: carboxymethylcellulose (CMC) 93 % of control | [16] 97 % of control | dose: 400.0 mg/kg/injection, schedule: Q01DX015 (ip), vehicle: carboxymethylcellulose (CMC) 93 % of control

OCC12C=CC(CC1)CC2
inactive: dose: 75.0 mg/kg/injection, schedule: Q04DX002 (ip), vehicle: gum acacia 92 % of control | dose: 150.0 mg/kg/injection, schedule: Q04DX002 (ip), vehicle: gum acacia 100 % of control | dose: 300.0 mg/kg/injection, schedule: Q04DX002 (ip), vehicle: gum acacia 92 % of control

CCOc1ccc2nc(C)sc2c1
inactive: dose: 100.0 mg/kg/injection, schedule: Q04DX003 (ip), vehicle: acetone 97 % of control | dose: 200.0 mg/kg/injection, schedule: Q04DX003 (ip), vehicle: acetone 95 % of control | dose: 400.0 mg/kg/injection, schedule: Q04DX003 (ip), vehicle: acetone 93 % of control

CCCC[N+](C)(C)CC[N+](C)(C)CCCC
inactive: [4] 102 % of control | [5] 105 % of control | [6] 102 % of control

N#CC(C#N)=C1SCS1
inactive: dose: 6.25 mg/kg/injection, schedule: Q04DX002 (ip), vehicle: saline with Tween-80 103 % of control | dose: 12.5 mg/kg/injection, schedule: Q04DX002 (ip), vehicle: saline with Tween-80 111 % of control | [3] 114 % of control

Source: PubChem BioAssay AID248 (DTP/NCI, 2004)
